Measured values reported in ChEMBL document CHEMBL1201862, “PubChem BioAssay data set” (2004).
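Compound exposure: 48 hours, 5 concentrations, 96-well plates. Abbreviation: GI50, concentration required for 50% inhibition of growth.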 Calls of active or inactive are those of the source. Cut-off read from the data, not from the text of the source: active = GI50 up to about 1.1 µM and inactive = higher.

Experiments:
Experiment in all cases: DTP human tumour cell line panel, 48 h
LOX IMVI = tested on: LOX IMVI
RPMI-8226 = tested on: RPMI-8226
A549 = tested on: A549
SN12C = tested on: SN12C
SW-620 = tested on: SW-620
A498 = tested on: A498
HCC 2998 = tested on: HCC 2998
HOP-62 = tested on: HOP-62
HOP-92 = tested on: HOP-92
OVCAR-5 = tested on: OVCAR-5
NCI-H226 = tested on: NCI-H226
NCI-H460 = tested on: NCI-H460
IGROV-1 = tested on: IGROV-1
CCRF-CEM = tested on: CCRF-CEM
SNB-19 = tested on: SNB-19
COLO 205 = tested on: COLO 205
KM-20L2 = tested on: KM-20L2
RXF 393 = tested on: RXF 393
SR = tested on: SR

SMILES | GI50 (LOX IMVI) | GI50 (RPMI-8226) | GI50 (A549) | GI50 (SN12C) | GI50 (SW-620) | GI50 (A498) | GI50 (HCC 2998) | GI50 (HOP-62) | GI50 (HOP-92) | GI50 (OVCAR-5) | GI50 (NCI-H226) | GI50 (NCI-H460) | GI50 (IGROV-1) | GI50 (CCRF-CEM) | GI50 (SNB-19) | GI50 (COLO 205) | GI50 (KM-20L2) | GI50 (RXF 393) | GI50 (SR)
CC1=C(C(=O)Nc2cccc(Cl)c2)C(c2ccccc2O)C(C(=O)Nc2cccc(Cl)c2)=C(C)N1 | 21.8 µM (inactive) | 20.7 µM (inactive) | 20.2 µM (inactive) | 21.8 µM (inactive) | 18.6 µM (inactive) | 19.5 µM (inactive) | 18.9 µM (inactive) | 19.3 µM (inactive) | 20.1 µM (inactive) | 19.4 µM (inactive) | 17.7 µM (inactive) | 21.6 µM (inactive) | 23.9 µM (inactive) | 22.3 µM (inactive) | 26.1 µM (inactive) | 20 µM (inactive) | 18.4 µM (inactive) | 17.2 µM (inactive) | –
COc1cc2cc3c4cc(OC)c(OC)cc4cc[n+]3cc2cc1OC | > 100 µM (inactive) | > 100 µM (inactive) | > 100 µM (inactive) | 12.4 µM (inactive) | > 100 µM (inactive) | > 100 µM (inactive) | > 30.6 µM (inactive) | > 100 µM (inactive) | > 100 µM (inactive) | > 100 µM (inactive) | 71.4 µM (inactive) | > 100 µM (inactive) | > 100 µM (inactive) | > 100 µM (inactive) | 15.2 µM (inactive) | 78.2 µM (inactive) | > 57.4 µM (inactive) | 46.6 µM (inactive) | –
CCCC1N2CCCCC2[C@@H]2c3[nH]c4ccccc4c3CCN12 (stereo partly drawn) | – | > 100 µM (inactive) | > 100 µM (inactive) | > 100 µM (inactive) | > 100 µM (inactive) | > 100 µM (inactive) | > 100 µM (inactive) | > 100 µM (inactive) | > 100 µM (inactive) | > 100 µM (inactive) | – | > 100 µM (inactive) | > 100 µM (inactive) | > 100 µM (inactive) | > 100 µM (inactive) | > 100 µM (inactive) | > 100 µM (inactive) | > 100 µM (inactive) | –
O=C(O)[C@@H]1OCCOCCO[C@@H](C(=O)O)[C@H](C(=O)O)OCCOCCO[C@H]1C(=O)O | > 71.3 µM (inactive) | > 38.4 µM (inactive) | > 100 µM (inactive) | > 100 µM (inactive) | > 50.1 µM (inactive) | > 100 µM (inactive) | > 100 µM (inactive) | > 100 µM (inactive) | > 100 µM (inactive) | > 100 µM (inactive) | > 100 µM (inactive) | > 64.4 µM (inactive) | > 100 µM (inactive) | > 51.2 µM (inactive) | > 100 µM (inactive) | > 61.7 µM (inactive) | > 100 µM (inactive) | – | 19.1 µM (inactive)
COc1cc(-c2c(C)c(C)nc(OC)c2C#N)cc(OC)c1OC | – | 37.4 µM (inactive) | > 100 µM (inactive) | > 100 µM (inactive) | > 100 µM (inactive) | > 100 µM (inactive) | > 100 µM (inactive) | > 100 µM (inactive) | 21.3 µM (inactive) | – | 24.9 µM (inactive) | > 100 µM (inactive) | > 100 µM (inactive) | > 100 µM (inactive) | > 100 µM (inactive) | > 100 µM (inactive) | > 100 µM (inactive) | 44.2 µM (inactive) | –
c1ccc(SC2(Sc3ccccc3)CCCC2)cc1 | > 100 µM (inactive) | > 100 µM (inactive) | > 100 µM (inactive) | > 100 µM (inactive) | > 100 µM (inactive) | > 100 µM (inactive) | – | > 100 µM (inactive) | 71.1 µM (inactive) | – | – | > 100 µM (inactive) | – | > 100 µM (inactive) | > 100 µM (inactive) | > 100 µM (inactive) | > 100 µM (inactive) | > 100 µM (inactive) | > 100 µM (inactive)
COc1cccc2[s+]snc12 | 33.6 µM (inactive) | – | 77.6 µM (inactive) | 35.5 µM (inactive) | 29.4 µM (inactive) | 95.7 µM (inactive) | > 100 µM (inactive) | 61.7 µM (inactive) | – | > 100 µM (inactive) | > 100 µM (inactive) | 68.4 µM (inactive) | > 100 µM (inactive) | > 10 µM (inactive) | 50.6 µM (inactive) | > 100 µM (inactive) | > 100 µM (inactive) | 67 µM (inactive) | 22.2 µM (inactive)
O=C(/C=C/c1ccccc1)CC1OC(=O)c2ccccc21 (stereo not drawn) | 49.7 µM (inactive) | 24.2 µM (inactive) | > 100 µM (inactive) | – | 84.3 µM (inactive) | > 100 µM (inactive) | > 100 µM (inactive) | > 100 µM (inactive) | 48.8 µM (inactive) | > 100 µM (inactive) | 22.5 µM (inactive) | > 100 µM (inactive) | 80.7 µM (inactive) | 32.8 µM (inactive) | 42.1 µM (inactive) | > 100 µM (inactive) | > 100 µM (inactive) | > 100 µM (inactive) | –
Cc1cc(N(CCC#N)CCC#N)ccc1/C=C1N=C(/C=C\c2ccccc2)N(NC(=O)CC(=O)Nc2ccccc2Cl)C\1=O | > 100 µM (inactive) | > 100 µM (inactive) | > 100 µM (inactive) | > 100 µM (inactive) | > 100 µM (inactive) | > 100 µM (inactive) | – | > 100 µM (inactive) | > 100 µM (inactive) | > 100 µM (inactive) | > 100 µM (inactive) | > 100 µM (inactive) | > 100 µM (inactive) | > 100 µM (inactive) | > 100 µM (inactive) | > 100 µM (inactive) | > 100 µM (inactive) | – | –
CCC(C)(C)C(=O)O[C@H]1C[C@@H](C)C=C2C=C[C@H](C)[C@H](CC[C@@H]3C[C@@H](O)CC(=O)O3)[C@H]21 [SIMVASTATIN] | – | 8.2 µM (inactive) | 5.79 µM (inactive) | 1.51 µM (inactive) | 9.59 µM (inactive) | 0.902 µM (active) | 16.5 µM (inactive) | 9.2 µM (inactive) | < 0.003 µM (active) | – | – | 9.08 µM (inactive) | 0.647 µM (active) | 11.3 µM (inactive) | – | 12.1 µM (inactive) | 12.3 µM (inactive) | 0.811 µM (active) | 13.2 µM (inactive)
CNS(=O)(=O)NNS(=O)(=O)c1ccc(OC)cc1 | > 100 µM (inactive) | > 100 µM (inactive) | > 100 µM (inactive) | – | > 100 µM (inactive) | > 100 µM (inactive) | > 100 µM (inactive) | > 100 µM (inactive) | – | – | – | > 100 µM (inactive) | > 100 µM (inactive) | > 100 µM (inactive) | > 100 µM (inactive) | > 100 µM (inactive) | > 100 µM (inactive) | > 100 µM (inactive) | > 100 µM (inactive)
Cc1cc(C)nc(NS(=O)(=O)c2ccc(Nc3c4ccccc4nc4c(C(=O)Nc5ccc(S(=O)(=O)N=C(N)N)cc5)cccc34)cc2)n1 | > 100 µM (inactive) | > 100 µM (inactive) | > 100 µM (inactive) | > 100 µM (inactive) | > 100 µM (inactive) | > 100 µM (inactive) | > 100 µM (inactive) | > 100 µM (inactive) | 37.5 µM (inactive) | 51.8 µM (inactive) | – | > 100 µM (inactive) | > 100 µM (inactive) | > 100 µM (inactive) | 35.7 µM (inactive) | > 100 µM (inactive) | > 100 µM (inactive) | 24.4 µM (inactive) | –
